Holding throughout (experiment): relative viability (nuclei count vs DMSO), 5 days (fraction); higher = more cells survive
Compound in the experiment “Crenolanib + Olaparib”: CC1(COc2ccc3c(c2)ncn3-c2ccc3cccc(N4CCC(N)CC4)c3n2)COC1 [Crenolanib] + O=C(c1cc(Cc2n[nH]c(=O)c3ccccc23)ccc1F)N1CCN(C(=O)C2CC2)CC1 [Olaparib] (partner 8 µM)
The gist of the method:
(§1)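 A single step with final 0.05% Triton X-100, 1% formaldehyde and 1 ug/ml Hoechst fixed the cells and stained nuclei 5 days after treatment. Lung cancer cell lines in 1536-well plates had been treated by pin tool the day after seeding with one drug alone or a fixed anchor-drug dose plus five library-drug doses (not always all listed) in √10 steps, and nuclei were counted on 4× images. Relative viability is the ratio of nuclei in treated wells to nuclei in vehicle wells, taken as the median of duplicate plates.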

Compound in the experiment “Crenolanib + AZD7762”: CC1(COc2ccc3c(c2)ncn3-c2ccc3cccc(N4CCC(N)CC4)c3n2)COC1 [Crenolanib] + NC(=O)Nc1cc(-c2cccc(F)c2)sc1C(=O)N[C@H]1CCCNC1 [AZD7762] (partner 0.2 µM)
In outline:
as §1

Compound in the experiment “Tivantinib + Foretinib”: O=C1NC(=O)[C@@H](c2cn3c4c(cccc24)CCC3)[C@@H]1c1c[nH]c2ccccc12 [Tivantinib] + COc1cc2c(Oc3ccc(NC(=O)C4(C(=O)Nc5ccc(F)cc5)CC4)cc3F)ccnc2cc1OCCCN1CCOCC1 [Foretinib] (partner 0.25 µM)
In outline: as §1

Compound in the experiment “Tivantinib + Crizotinib”: O=C1NC(=O)[C@@H](c2cn3c4c(cccc24)CCC3)[C@@H]1c1c[nH]c2ccccc12 [Tivantinib] + C[C@@H](Oc1cc(-c2cnn(C3CCNCC3)c2)cnc1N)c1c(Cl)ccc(F)c1Cl [Crizotinib] (partner 1 µM)
In outline: as §1

This passage reports relative viability results from the supplement of paper PMC10307832.

As for NCI-H2405, the relative viability with Crenolanib + Olaparib (first compound 0.01 µM) worked out at 0.919; with Crenolanib + Olaparib (first compound 0.1 µM), 0.742; with Crenolanib + Olaparib (first compound 0.3162 µM) it was 0.919; with Crenolanib + Olaparib (first compound 1 µM), 0.86; in the experiment with Crenolanib + AZD7762 (first compound 0.01 µM), 0.801; with Crenolanib + AZD7762 (first compound 0.1 µM), 0.554. For the same cell line, the relative viability was 0.773 with Crenolanib + AZD7762 (first compound 0.3162 µM); 0.646 with Crenolanib + AZD7762 (first compound 1 µM); 1.16 with Tivantinib + Foretinib (first compound 0.01 µM); 1.07 in the experiment with Tivantinib + Foretinib (first compound 0.03162 µM); 1.05 with Tivantinib + Foretinib (first compound 0.1 µM); 0.98 in the experiment with Tivantinib + Foretinib (first compound 0.3162 µM). Moreover, the relative viability with Tivantinib + Crizotinib (first compound 0.01 µM) was 0.892; with Tivantinib + Crizotinib (first compound 0.03162 µM) it was 0.879; with Tivantinib + Crizotinib (first compound 0.1 µM), 0.821; with Tivantinib + Crizotinib (first compound 0.3162 µM) it was 0.821.
In the case of NCI-H3122, the relative viability in the experiment with Crenolanib + Olaparib (first compound 0.01 µM) was found to be 0.678; with Crenolanib + Olaparib (first compound 0.03162 µM) it was 0.622; with Crenolanib + Olaparib (first compound 0.1 µM), 0.641; with Crenolanib + Olaparib (first compound 0.3162 µM), 0.727; with Crenolanib + Olaparib (first compound 1 µM) it was 0.61; with Crenolanib + AZD7762 (first compound 0.01 µM) it was 1.02. Moreover, the relative viability with Crenolanib + AZD7762 (first compound 0.03162 µM) worked out at 0.958; in the experiment with Crenolanib + AZD7762 (first compound 0.1 µM), 1.02; with Crenolanib + AZD7762 (first compound 0.3162 µM), 1.04; in the experiment with Crenolanib + AZD7762 (first compound 1 µM), 0.996; with Tivantinib + Foretinib (first compound 0.01 µM), 0.947; with Tivantinib + Foretinib (first compound 0.03162 µM), 0.982. Further, the relative viability stood at 0.909 with Tivantinib + Foretinib (first compound 0.1 µM); 0.951 with Tivantinib + Foretinib (first compound 0.3162 µM); 0.271 with Tivantinib + Crizotinib (first compound 0.01 µM); 0.275 in the experiment with Tivantinib + Crizotinib (first compound 0.03162 µM); 0.252 with Tivantinib + Crizotinib (first compound 0.1 µM); 0.272 in the experiment with Tivantinib + Crizotinib (first compound 0.3162 µM).
Take PC-3 [JPC-3]: the relative viability in the experiment with Crenolanib + Olaparib (first compound 0.01 µM) is 1.26; with Crenolanib + Olaparib (first compound 0.1 µM), 1.01; in the experiment with Crenolanib + Olaparib (first compound 0.3162 µM), 1.06; in the experiment with Crenolanib + Olaparib (first compound 1 µM), 1.06; with Crenolanib + AZD7762 (first compound 0.01 µM), 0.761; with Crenolanib + AZD7762 (first compound 0.1 µM) it was 0.832. Further, the relative viability in the experiment with Crenolanib + AZD7762 (first compound 0.3162 µM) came out at 0.78; in the experiment with Crenolanib + AZD7762 (first compound 1 µM), 0.752; in the experiment with Tivantinib + Foretinib (first compound 0.01 µM), 1; with Tivantinib + Foretinib (first compound 0.03162 µM) it was 1.12; in the experiment with Tivantinib + Foretinib (first compound 0.1 µM), 1.06; with Tivantinib + Foretinib (first compound 0.3162 µM), 0.904. In addition, the relative viability with Tivantinib + Crizotinib (first compound 0.01 µM) is 1.03; with Tivantinib + Crizotinib (first compound 0.03162 µM) it was 1.05; with Tivantinib + Crizotinib (first compound 0.1 µM), 0.996; with Tivantinib + Crizotinib (first compound 0.3162 µM), 0.759.
For the cell line PC-14, the relative viability with Crenolanib + Olaparib (first compound 0.01 µM) was 0.255; with Crenolanib + Olaparib (first compound 0.03162 µM), 0.257; with Crenolanib + Olaparib (first compound 0.1 µM), 0.299; with Crenolanib + Olaparib (first compound 0.3162 µM), 0.249; with Crenolanib + Olaparib (first compound 1 µM), 0.257; with Crenolanib + AZD7762 (first compound 0.01 µM) it was 0.39. The relative viability in the experiment with Crenolanib + AZD7762 (first compound 0.03162 µM) turned out to be 0.305; with Crenolanib + AZD7762 (first compound 0.1 µM), 0.36; in the experiment with Crenolanib + AZD7762 (first compound 0.3162 µM) it was 0.281; in the experiment with Crenolanib + AZD7762 (first compound 1 µM) it was 0.328; in the experiment with Tivantinib + Foretinib (first compound 0.01 µM) it was 0.93; with Tivantinib + Foretinib (first compound 0.03162 µM), 0.893. Also, the relative viability in the experiment with Tivantinib + Foretinib (first compound 0.1 µM) was found to be 0.984; with Tivantinib + Foretinib (first compound 0.3162 µM) it was 1.05; with Tivantinib + Crizotinib (first compound 0.01 µM), 0.912; with Tivantinib + Crizotinib (first compound 0.03162 µM) it was 0.883; with Tivantinib + Crizotinib (first compound 0.1 µM), 0.934; with Tivantinib + Crizotinib (first compound 0.3162 µM), 0.894.
RERF-LC-KJ: the relative viability was 0.864 with Crenolanib + Olaparib (first compound 0.01 µM); 0.942 in the experiment with Crenolanib + Olaparib (first compound 0.03162 µM); 0.871 with Crenolanib + Olaparib (first compound 0.1 µM); 1.03 in the experiment with Crenolanib + Olaparib (first compound 0.3162 µM); 0.93 with Crenolanib + Olaparib (first compound 1 µM); 1.19 with Crenolanib + AZD7762 (first compound 0.01 µM). For the same cell line, the relative viability with Crenolanib + AZD7762 (first compound 0.03162 µM) came out at 0.739; with Crenolanib + AZD7762 (first compound 0.1 µM) it was 0.896; with Crenolanib + AZD7762 (first compound 0.3162 µM), 0.894; with Crenolanib + AZD7762 (first compound 1 µM), 1.04; with Tivantinib + Foretinib (first compound 0.01 µM), 0.911; with Tivantinib + Foretinib (first compound 0.03162 µM) it was 0.908. For the same cell line, the relative viability in the experiment with Tivantinib + Foretinib (first compound 0.1 µM) was 0.85; in the experiment with Tivantinib + Foretinib (first compound 0.3162 µM), 0.883; with Tivantinib + Crizotinib (first compound 0.01 µM) it was 0.831; in the experiment with Tivantinib + Crizotinib (first compound 0.03162 µM) it was 0.886; in the experiment with Tivantinib + Crizotinib (first compound 0.1 µM) it was 0.852; in the experiment with Tivantinib + Crizotinib (first compound 0.3162 µM) it was 0.831.
